Source: patent publication US9914730B2, “Azaquinazoline inhibitors of Atypical protein Kinase C” (Ignyta, Inc., priority 2012, dated 2018)

target: T1, full-length human PKCι (Homo sapiens, UniProt P41743); test: PKCι IC50 IMAP assay, full-length PKCι at 150 μM ATP; format: biochemical; settings: read-out: IC50 in IMAP assay against full length PKCi at 150 μM ATP
T1 construct: Recombinant, full-length human PKCι expressed in Sf21 insect cells is also commercially available; purchased; host or cells: Sf21 insect cells
T1 sequence (P41743 1-596): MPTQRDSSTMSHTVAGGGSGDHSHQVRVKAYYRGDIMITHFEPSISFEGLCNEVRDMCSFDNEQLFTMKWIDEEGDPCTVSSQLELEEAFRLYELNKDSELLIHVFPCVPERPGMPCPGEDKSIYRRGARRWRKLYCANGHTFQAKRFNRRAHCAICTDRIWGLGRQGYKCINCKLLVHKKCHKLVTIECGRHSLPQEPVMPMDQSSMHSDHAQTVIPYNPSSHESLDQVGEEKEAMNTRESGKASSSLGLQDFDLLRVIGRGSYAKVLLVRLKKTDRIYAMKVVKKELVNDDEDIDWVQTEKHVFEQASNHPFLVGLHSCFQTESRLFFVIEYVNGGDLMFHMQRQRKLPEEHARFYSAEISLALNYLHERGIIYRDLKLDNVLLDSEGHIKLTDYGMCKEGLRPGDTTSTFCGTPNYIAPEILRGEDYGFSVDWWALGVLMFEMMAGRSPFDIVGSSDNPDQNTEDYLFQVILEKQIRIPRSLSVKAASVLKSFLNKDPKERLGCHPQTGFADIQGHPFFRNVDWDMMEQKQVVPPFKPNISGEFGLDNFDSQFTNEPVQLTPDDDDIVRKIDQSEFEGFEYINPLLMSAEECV
Method in brief: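 Recombinant full-length human PKCι (Sf21-expressed, typically 15 pM) phosphorylated 100 nM 5FAM-labelled PKCε pseudosubstrate-derived peptide with 150 μM ATP (5× KM^APP) in 18 mM tris-HCl pH7.5, 9 mM MgCl2, EGTA, DTT, 4% DMSO. After 60 min at room temperature, IMAP binding reagent was added for 2 h and fluorescence polarisation read.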

| Compound | IC50 |
| --- | --- |
| O[C@H]1Cc2ccccc2[C@H]1Nc1cc(-c2nc(N3CCNCC3)c3c(C4CC4)cncc3n2)ccn1 [Example 2142, (1R,2S)-1-[4-(5-Cyclopropyl-4-piperazin-1-yl-pyrido[3,4-d]pyrimidin-2-yl)-pyridin-2-ylamino]-indan-2-ol] | 100 to 1000 nM |
| O[C@@H]1Cc2ccccc2[C@H]1Nc1cc(-c2nc(N3CCNCC3)c3c(C4CC4)cncc3n2)ccn1 [Example 2143, (1R,2R)-1-[4-(5-Cyclopropyl-4-piperazin-1-yl-pyrido[3,4-d]pyrimidin-2-yl)-pyridin-2-ylamino]-indan-2-ol] | < 100 nM |
| Fc1cccc(F)c1-c1cc2c(-c3nc(N4CCNCC4)c4c(C5CCC5)cncc4n3)ccnc2[nH]1 [Example 2144, 5-Cyclobutyl-2-[2-(2,6-difluoro-phenyl)-1H-pyrrolo[2,3-b]pyridin-4-yl]-4-piperazin-1-yl-pyrido[3,4-d]pyrimidine] | < 100 nM |
| Fc1cccc(F)c1-c1cc2c(-c3nc(N4CCNCC4)c4c(C5CC5)cncc4n3)ccnc2[nH]1 [Example 2145, 5-Cyclopropyl-2-[2-(2,6-difluoro-phenyl)-1H-pyrroIo[2,3-b]pyridin-4-yl]-4-piperazin-1-yl-pyrido[3,4-d]pyrimidine] | < 100 nM |
| c1cc(-c2nc(N3CCNCC3)c3c(C4CC4)cncc3n2)c2cc(C3CCC3)[nH]c2n1 [Example 2146, 2-(2-Cyclobutyl-1H-pyrrolo[2,3-b]pyridin-4-yl)-5-cyclopropyl-4-piperazin-1-yl-pyrido[3,4-d]pyrimidine] | < 100 nM |
| c1cc(-c2nc(N3CCNCC3)c3c(C4CCC4)cncc3n2)c2cc(C3CCC3)[nH]c2n1 [Example 2147, 5-Cyclobutyl-2-(2-cyclobutyl-1H-pyrrolo[2,3-b]pyridin-4-yl)-4-piperazin-1-yl-pyrido[3,4-d]pyrimidine] | < 100 nM |
| Fc1cnc(Nc2cc(-c3nc(N4CCNCC4)c4c(C5CC5)cnc(Cl)c4n3)ccn2)c(F)c1 [Example 2148, [4-(8-Chloro-5-cyclopropyl-4-piperazin-1-yl-pyrido[3,4-d]pyrimidin-2-yl)-pyridin-2-yl]-(3,5-difluoro-pyridin-2-yl)-amine] | < 100 nM |
| Cn1cnc2ccc(Nc3cc(-c4nc(N5CCNCC5)c5c(C6CC6)cncc5n4)ccn3)cc21 [Example 2149, [4-(5-Cyclopropyl-4-piperazin-1-yl-pyrido[3,4-d]pyrimidin-2-yl)-pyridin-2-yl]-(3-methyl-3H-benzoimidazol-5-yl)-amine] | < 100 nM |
| FC(F)(F)COc1ccc(Nc2cc(-c3nc(N4CCNCC4)c4c(C5CC5)cncc4n3)ccn2)cc1 [Example 2150, [4-(5-Cyclopropyl-4-piperazin-1-yl-pyrido[3,4-d]pyrimidin-2-yl)-pyridin-2-yl]-[4-(2,2,2-trifluoro-ethoxy)-phenyl]-amine] | < 100 nM |
| CN(c1nc(-c2ccnc(Nc3ncc(Cl)cc3F)c2)nc2cncc(C3CC3)c12)C1CCNCC1 [Example 2151, {2-[2-(5-Chloro-3-fluoro-pyridin-2-ylamino)-pyridin-4-yl]-5-cyclopropyl-pyrido[3,4-d]pyrimidin-4-yl}-methyl-piperidin-4-yl-amine] | < 100 nM |
| c1cc(-c2nc(N3CCNCC3)c3c(C4CC4)cncc3n2)c2cc(C3CCCCC3)[nH]c2n1 [Example 2152, 5-Cyclopropyl-2-(2-cyclohexyl-1H-pyrrolo[2,3-b]pyridin-4-yl)-4-piperazin-1-yl-pyrido[3,4-d]pyrimidine] | < 100 nM |
| c1cc(-c2nc(N3CCNCC3)c3c(C4CCC4)cncc3n2)c2cc(C3CCCCC3)[nH]c2n1 [Example 2153, 5-Cyclobutyl-2-(2-cyclohexyl-1H-pyrrolo[2,3-b]pyridin-4-yl)-4-piperazin-1-yl-pyrido[3,4-d]pyrimidine] | < 100 nM |
| FC(F)(F)c1ccc(-n2cc(Nc3cc(-c4nc(N5CCNCC5)c5c(C6CC6)cncc5n4)ccn3)c(Cl)n2)nc1 [Example 2154, [3-Chloro-1-(5-trifluoromethyl-pyridin-2-yl)-1H-pyrazol-4-yl]-[4-(5-cyclopropyl-4-piperazin-1-yl-pyrido[3,4-d]pyrimidin-2-yl)-pyridin-2-yl]-amine] | < 100 nM |
| FC(F)(F)c1cc2c(-c3nc(NC4CCNCC4(F)F)c4c(C5CC5)cncc4n3)ccnc2[nH]1 (stereo not shown) [Example 2155, [5-Cyclopropyl-2-(2-trifluoromethyl-1H-pyrrolo[2,3-b]pyridin-4-yl)-pyrido[3,4-d]pyrimidin-4-yl]-(3,3-difluoro-piperidin-4-yl)-amine] | 100 to 1000 nM |
| Fc1cnc(Nc2cc(-c3nc(NC4CCNCC4(F)F)c4c(C5CC5)cncc4n3)ccn2)c(F)c1 (stereo not shown) [Example 2156, {5-Cyclopropyl-2-[2-(3,5-difluoro-pyridin-2-ylamino)-pyridin-4-yl]-pyrido[3,4-d]pyrimidin-4-yl}-(3,3-difluoro-piperidin-4-yl)-amine] | 100 to 1000 nM |
| CN(c1nc(-c2ccnc(Nc3ncc(F)cc3F)c2)nc2cncc(C3CCC3)c12)C1CCNCC1 [Example 2157, {5-Cyclobutyl-2-[2-(3,5-difluoro-pyridin-2-ylamino)-pyridin-4-yl]-pyrido[3,4-d]pyrimidin-4-yl}-methyl-piperidin-4-yl-amine] | < 100 nM |
| OC[C@H](Nc1cc(-c2nc(N3CCNCC3)c3c(C4CC4)cncc3n2)ccn1)c1ccccc1 [Example 2159, (R)-2-[4-(5-Cyclopropyl-4-piperazin-1-yl-pyrido[3,4-d]pyrimidin-2-yl)-pyridin-2-ylamino]-2-phenyl-ethanol] | 100 to 1000 nM |
| C[C@@H](Nc1cc(-c2nc(N3CCNCC3)c3c(C4CC4)cncc3n2)ccn1)c1ccc2ccccc2c1 [Example 2160, [4-(5-Cyclopropyl-4-piperazin-1-yl-pyrido[3,4-d]pyrimidin-2-yl)-pyridin-2-yl]-((R)-1-naphthalen-2-yl-ethyl)-amine] | < 100 nM |
| C[C@@H](Nc1cc(-c2nc(N3CCNCC3)c3c(C4CCC4)cncc3n2)ccn1)c1ccccc1F [Example 2161, [4-(5-Cyclobutyl-4-piperazin-1-yl-pyrido[3,4-d]pyrimidin-2-yl)-pyridin-2-yl]-[(R)-1-(2-fluoro-phenyl)-ethyl]-amine] | < 100 nM |
| FC(F)(F)Oc1ccc(Nc2cc(-c3nc(N4CCNCC4)c4c(C5CC5)cncc4n3)ccn2)cc1 [Example 2162, [4-(5-Cyclopropyl-4-piperazin-1-yl-pyrido[3,4-d]pyrimidin-2-yl)-pyridin-2-yl]-(4-trifluoromethoxy-phenyl)-amine] | < 100 nM |
| CN(c1nc(-c2ccnc(Nc3nc(F)c(F)cc3F)c2)nc2cncc(C3CCC3)c12)C1CCNCC1 [Example 2163, {5-Cyclobutyl-2-[2-(3,5,6-trifluoro-pyridin-2-ylamino)-pyridin-4-yl]-pyrido[3,4-d]pyrimidin-4-yl}-methyl-piperidin-4-yl-amine] | < 100 nM |
| OC[C@@H](Nc1cc(-c2nc(N3CCNCC3)c3c(C4CC4)cncc3n2)ccn1)c1ccccc1 [Example 2164, (S)-2-[4-(5-Cyclopropyl-4-piperazin-1-yl-pyrido[3,4-d]pyrimidin-2-yl)-pyridin-2-ylamino]-2-phenyl-ethanol] | < 100 nM |
| C[C@@H](Nc1cc(-c2nc(N3CCNCC3)c3c(C4CC4)cncc3n2)ccn1)c1cccc2ccccc12 [Example 2165, [4-(5-Cyclopropyl-4-piperazin-1-yl-pyrido[3,4-d]pyrimidin-2-yl)-pyridin-2-yl]-((R)-1-naphthalen-1-yl-ethyl)-amine] | < 100 nM |
| FC(F)(CNc1cc(-c2nc(N3CCNCC3)c3c(C4CC4)cncc3n2)ccn1)c1ccccc1 [Example 2166, [4-(5-Cyclopropyl-4-piperazin-1-yl-pyrido[3,4-d]pyrimidin-2-yl)-pyridin-2-yl]-(2,2-difluoro-2-phenyl-ethyl)-amine] | < 100 nM |
| CN(CC1CCNCC1)c1nc(-c2ccnc(Nc3ncc(F)cc3F)c2)nc2cncc(C3CC3)c12 [Example 2167, {5-Cyclopropyl-2-[2-(3,5-difluoro-pyridin-2-ylamino)-pyridin-4-yl]-pyrido[3,4-d]pyrimidin-4-yl}-methyl-piperidin-4-ylmethyl-amine] | < 100 nM |
| Fc1cnc(Nc2cc(-c3nc(NC4CCOCC4)c4c(C5CC5)cncc4n3)ccn2)c(F)c1 [Example 2168, {5-Cyclopropyl-2-[2-(3,5-difluoro-pyridin-2-ylamino)-pyridin-4-yl]-pyrido[3,4-d]pyrimidin-4-yl}-(tetrahydro-pyran-4-yl)-amine] | 10000 to 40000 nM |
| CN(c1nc(-c2ccnc(Nc3nc(F)c(F)cc3F)c2)nc2c(Cl)ncc(C3CC3)c12)C1CCNCC1 [Example 2169, {8-Chloro-5-cyclopropyl-2-[2-(3,5,6-trifluoro-pyridin-2-ylamino)-pyridin-4-yl]-pyrido[3,4-d]pyrimidin-4-yl}-methyl-piperidin-4-yl-amine] | < 100 nM |
| CN(c1nc(-c2ccnc(Nc3ncc(F)cc3F)c2)nc2c(Cl)ncc(C3CC3)c12)C1CCNCC1 [Example 2170, {8-Chloro-5-cyclopropyl-2-[2-(3,5-difluoro-pyridin-2-ylamino)-pyridin-4-yl]-pyrido[3,4-d]pyrimidin-4-yl}-methyl-piperidin-4-yl-amine] | < 100 nM |
